{"source": "patent US20070004620A1", "about": "“Fp receptor antagonists or pgf2 alpha antagonists for treating pathological conditions of the uterus” (priority 2002, published 2007)", "key": {"[1]": {"tested_on": "PGF2α receptor", "conditions": "cited from earlier work"}, "[2]": {"target": "EP2 (Homo sapiens, UniProt P43116)", "sequence (P43116 whole entry)": "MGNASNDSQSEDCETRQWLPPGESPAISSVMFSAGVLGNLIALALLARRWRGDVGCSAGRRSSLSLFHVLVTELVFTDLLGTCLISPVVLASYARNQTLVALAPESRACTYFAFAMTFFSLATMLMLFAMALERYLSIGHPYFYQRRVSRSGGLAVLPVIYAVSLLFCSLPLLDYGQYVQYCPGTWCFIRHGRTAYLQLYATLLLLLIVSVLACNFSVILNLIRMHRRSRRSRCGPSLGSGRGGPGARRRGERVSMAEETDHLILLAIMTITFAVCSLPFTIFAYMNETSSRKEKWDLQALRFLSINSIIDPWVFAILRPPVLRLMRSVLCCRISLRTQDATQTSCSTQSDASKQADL", "conditions": "10 μM; cited from earlier work"}, "[3]": {"target": "T1, DP (Homo sapiens, UniProt Q13258)", "T1 sequence (Q13258 1-359)": "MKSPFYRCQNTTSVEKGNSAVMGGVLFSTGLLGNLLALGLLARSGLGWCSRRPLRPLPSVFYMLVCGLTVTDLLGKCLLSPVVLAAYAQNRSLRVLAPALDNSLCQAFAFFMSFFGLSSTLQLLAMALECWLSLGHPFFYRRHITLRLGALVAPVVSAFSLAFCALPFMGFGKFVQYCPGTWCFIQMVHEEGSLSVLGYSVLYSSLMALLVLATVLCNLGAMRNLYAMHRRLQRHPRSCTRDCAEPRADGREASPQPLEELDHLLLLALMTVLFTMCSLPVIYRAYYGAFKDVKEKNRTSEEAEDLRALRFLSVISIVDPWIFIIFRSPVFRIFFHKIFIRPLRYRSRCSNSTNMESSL", "conditions": "10 μM; cited from earlier work"}, "[4]": {"target": "T2, TP (Homo sapiens, UniProt P21731)", "T2 sequence (P21731 1-343)": "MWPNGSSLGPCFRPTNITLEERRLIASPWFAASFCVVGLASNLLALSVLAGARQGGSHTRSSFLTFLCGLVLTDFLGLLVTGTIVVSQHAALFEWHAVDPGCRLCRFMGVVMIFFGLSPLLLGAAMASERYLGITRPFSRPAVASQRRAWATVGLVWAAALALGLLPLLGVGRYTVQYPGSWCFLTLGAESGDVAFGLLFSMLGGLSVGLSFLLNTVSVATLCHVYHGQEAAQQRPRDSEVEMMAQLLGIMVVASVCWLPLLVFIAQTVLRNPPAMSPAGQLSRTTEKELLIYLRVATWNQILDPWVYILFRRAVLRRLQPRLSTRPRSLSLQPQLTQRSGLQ", "conditions": "10 μM; cited from earlier work"}, "[5]": {"target": "EP4 (Homo sapiens, UniProt P35408)", "sequence (P35408 whole entry)": "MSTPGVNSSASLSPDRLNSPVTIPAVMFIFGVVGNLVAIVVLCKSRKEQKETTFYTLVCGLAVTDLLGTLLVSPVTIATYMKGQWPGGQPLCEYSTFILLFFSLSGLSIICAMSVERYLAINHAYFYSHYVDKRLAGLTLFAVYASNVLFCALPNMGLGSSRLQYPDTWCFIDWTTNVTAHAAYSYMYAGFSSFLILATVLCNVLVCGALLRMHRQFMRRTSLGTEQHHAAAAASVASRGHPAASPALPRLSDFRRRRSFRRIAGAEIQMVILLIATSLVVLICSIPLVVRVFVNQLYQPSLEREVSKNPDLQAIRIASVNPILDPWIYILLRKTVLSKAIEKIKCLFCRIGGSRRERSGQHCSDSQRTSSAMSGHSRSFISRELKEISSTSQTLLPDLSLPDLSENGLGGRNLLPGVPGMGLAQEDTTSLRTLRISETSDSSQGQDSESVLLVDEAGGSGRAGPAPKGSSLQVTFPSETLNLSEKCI", "conditions": "10 μM; cited from earlier work"}, "[6]": {"tested_on": "Ishikawa cells", "assay": "Proliferation assay (BrdU incorporation ELISA) in Ishikawa cells", "format": "cell-based, human", "conditions": "U73122 2μM, no PGF2α", "procedure": "Proliferation of Ishikawa cells was determined using a BrdU incorporation ELISA (Roche Diagnostics GmbH, Mannheim, Germany). Briefly, Ishikawa cells were seeded at 5×10^3 cells per well in a 96-well plate and allowed to adhere overnight. Cells were next starved for 24 hr with indomethacin 1.5 μg/ml before 24 h PGF2α treatment (1 nM-1 μM) in serum-free medium containing indomethacin. Inhibitors were added to cells for 60 min before PGF2α with the control well receiving the same concentration of vehicle. Following 24 h treatment, cells were labelled with BrdU for 4 h, then fixed and assayed for BrdU incorporation using standard immunohistochemical techniques. Results were plotted as percentages of untreated cells."}, "[7]": {"tested_on": "human endometrium", "assay": "Total inositol phosphate (InsP) assay in human endometrium tissue", "format": "cell-based", "procedure": "(§1) PGF2α stimulation of total InsP production was as described (21). Briefly, tissue samples or Ishikawa cells were incubated with inositol free DMEM containing 1% dialyzed heat-inactivated FCS and 0.5 μCi/well myo-[^3H]inositol (Amersham Pharmacia Biotech) for 48 hours. Medium was removed, and cells washed with 1 ml buffer (140 mM NaCl, 20 mM HEPES, 4 mM KCl, 8 mM glucose, 1 mM MgCl2, 1 mM CaCl2, 1 mg/ml bovine serum albumin) containing 10 mM LiCl. Cells were then incubated for 1 hour at 37° C. in 1 ml buffer with or without inhibitors. Following incubation agonist was added at the required concentration and cells incubated for 1 hour. Reactions were terminated by the removal of agonist and the addition of 500 μl ice cold 10 mM formic acid, which was incubated for 30 minutes at 4° C. Total [^3H] inositol phosphates was separated from the formic acid cell extracts on AG 1-X8 anion exchange resin (Bio-Rad) and eluted with a 1 M ammonium formate/0.1 M formic acid solution. The associated radioactivity was determined by liquid scintillation counting and plotted relative to protein concentrations determined using the modified Lowry method."}, "[8]": {"tested_on": "Ishikawa cells", "assay": "Total inositol phosphate (InsP) assay in Ishikawa cells", "format": "cell-based, human", "conditions": "PGF2α 100 nM", "procedure": "as §1"}, "[9]": {"tested_on": "Ishikawa cells", "assay": "ERK phosphorylation in Ishikawa cells", "format": "cell-based, human", "conditions": "100 nM, treatment for 10 min", "procedure": "ERK phosphorylation in Ishikawa cells. PGF2α 100 nM was incubated for 10 and 30 min. U73122 2 μM was pre-incubated for 60 min before treatment with PGF2α."}, "[10]": {"tested_on": "HCT-8", "conditions": "HCT-8 human colon adenocarcinoma cell line; cited from earlier work"}, "[11]": {"tested_on": "HT-29", "conditions": "HT-29 human colon adenocarcinoma cell line; cited from earlier work"}}, "note": "Entries after “also recorded” stand apart in the source; their conditions may differ.", "data": [{"molecule": "CCCCC(F)[C@H](O)/C=C/[C@H]1CC[C@H](O)[C@@H]1C/C=C\\CCCC(=O)O", "note": "(stereo partly drawn) [AL-3138, 11-deoxy-16-fluoro PGF2α]", "values": [{"measurement": "agonist activity at the PGF2α (FP) receptor", "setting": "[1]", "result": "weak partial agonist; also recorded: partial agonist of low efficacy"}, {"measurement": "antagonist activity at the PGF2α (FP) receptor", "setting": "[1]", "result": "highly selective antagonist"}]}, {"molecule": "O=C(O)CCC/C=C\\C[C@@H]1[C@@H](/C=C/[C@H](O)C2Cc3ccccc3C2)[C@@H](F)C[C@@H]1O", "note": "[AL-8810, (5Z, 13E)-(9S,11S,15R)-9,15-dihydroxy-11-fluoro-15-(2-indanyl)-16,17,18,19,20-pentanor-5,13-prostadienoic acid]", "values": [{"measurement": "inhibition of functional responses of EP2", "setting": "[2]", "result": "not to significantly inhibit"}, {"measurement": "inhibition of functional responses of DP", "setting": "[3]", "result": "not to significantly inhibit"}, {"measurement": "inhibition of functional responses of TP", "setting": "[4]", "result": "not to significantly inhibit"}, {"measurement": "FP receptor antagonist potency", "setting": "[1]", "result": "micromolar"}, {"measurement": "agonist activity at the PGF2α (FP) receptor", "setting": "[1]", "result": "weak partial agonist"}, {"measurement": "antagonist activity at the PGF2α (FP) receptor", "setting": "[1]", "result": "highly selective antagonist"}, {"measurement": "inhibition of functional responses of EP4", "setting": "[5]", "result": "not to significantly inhibit"}]}, {"molecule": "COc1ccc2c(c1)CC[C@@H]1[C@@H]2CC[C@]2(C)[C@@H](NCCCCCCN3C(=O)C=CC3=O)CC[C@@H]12", "note": "[U73122]", "values": [{"measurement": "basal proliferation after pre-incubation with inhibitor", "setting": "[6]", "result": "93.9±1.9", "unit": "%"}]}, {"molecule": "Cc1ccc(S(=O)(=O)NC(=O)NN2CCCCCC2)cc1", "note": "[tolazamide]", "values": [{"measurement": "antagonist activity at the PGF2α (FP) receptor", "setting": "[1]", "result": "very weak antagonists"}]}, {"molecule": "CCCCNC(=O)NS(=O)(=O)c1ccc(C)cc1", "note": "[tolbutamide]", "values": [{"measurement": "antagonist activity at the PGF2α (FP) receptor", "setting": "[1]", "result": "very weak antagonists"}]}, {"molecule": "prostaglandin F2α [PGF2α]", "values": [{"measurement": "concentration at which maximal InsP mobilisation was observed", "setting": "[7]", "result": 100, "unit": "nM"}, {"measurement": "total InsP, maximum", "setting": "[8]", "result": 29, "unit": "cpm/mg protein"}, {"measurement": "fold increase in phosphorylated ERK intensity compared to native ERK", "setting": "[9]", "result": "6.6±0.7", "unit": "fold"}, {"measurement": "proliferation by PGF2α", "setting": "[10]", "result": "lack of proliferation"}, {"measurement": "proliferation by PGF2α", "setting": "[11]", "result": "lack of proliferation"}]}]}
